Source: patent publication US20240173432A1, “Compositions and Methods for Treatment of Myotonic Dystrophy Type 1 with CRISPR/SluCas9” (Vertex Pharmaceuticals Incorporated, priority 2021, published 2024)

Legend:
[1] = system: CTG repeat in the 3′ UTR of human DMPK gene; assay: Dual-cut screening: CTG repeat excision efficiency by loss-of-signal ddPCR; format: cell-based; settings: sgRNA pair, primary DM1 patient myoblasts; for Excision efficiency (by ddPCR): 3 μM DNA-PKi Compound 6 for 48 hours; for Excision efficiency by ddPCR (Vehicle): vehicle (DMSO)
How it was run: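 Upstream and downstream SluCas9 RNPs (20 pmol protein, 60 pmol sgRNA each) mixed 1:1 and nucleofected into primary DM1 patient myoblasts, then treated 48 h with DMSO or 3 μM DNA-PKi Compound 6. Genomic DNA taken 72 h post-nucleofection; excision read as loss of target signal by ddPCR versus a DMPK exon 1 reference.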

[2] = system: CUG foci in primary DM1 patient myoblasts; assay: Dual-cut screening: FISH staining of CUG RNA foci; format: cell-based, human; settings: sgRNA pair, primary DM1 patient myoblasts; for % of CUG foci free nuclei (DNA-PKi): 3 μM DNA-PKi Compound 6 for 48 hours; for % of CUG foci free nuclei (Vehicle): vehicle (DMSO)
How it was run: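 SluCas9 RNPs (protein:sgRNA 1:3; 20 pmol SluCas9 + 60 pmol sgRNA per guide, paired 1:1) nucleofected into primary DM1 patient myoblasts, then DMSO or 3 μM DNA-PKi Compound 6 for 48 h. At 72 h post-nucleofection cells fixed, FISH-stained with Cy3-PNA(CAG)5 probe plus anti-MBNL1 and Hoechst; % CUG foci-free nuclei by high-content confocal imaging.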

Row | Substance | Excision efficiency (by ddPCR) [1] | Excision efficiency by ddPCR (Vehicle) [1] | % of CUG foci free nuclei (DNA-PKi) [2] [%] | % of CUG foci free nuclei (Vehicle) [2] [%]
1 | SluU64 + SluD32 (guide 1 GGGCTCGAAGGGTCCTTGTAGC; guide 2 CTTGTGCATGACGCCCTGCTCT; guide RNA; listed as DNA, chemistry not fully specified) | 85.56 | 60.75 | 89.99 | 77.6
2 | SluU64 + SluD34 (guide 1 GGGCTCGAAGGGTCCTTGTAGC; guide 2 CGCGCCAGACGCTCCCCAGAGC; guide RNA; listed as DNA, chemistry not fully specified) | 79.91 | 76.35 | 91.45 | 83.68
3 | SluU64 + SluD48 (guide 1 GGGCTCGAAGGGTCCTTGTAGC; guide 2 GAGAGCAGCGCAAGTGAGGAGG; guide RNA; listed as DNA, chemistry not fully specified) | 80.84 | 47.67 | 88.44 | 75.45
4 | SluU64 + SluD56 (guide 1 GGGCTCGAAGGGTCCTTGTAGC; guide 2 CCAGCCGGCTCCGCCCGCTTCG; guide RNA; listed as DNA, chemistry not fully specified) | 67.76 | 42.14 | 87.6 | 60.36
5 | SluU64 + SluD68 (guide 1 GGGCTCGAAGGGTCCTTGTAGC; guide 2 CCTGTAGCCTGTCAGCGAGTCG; guide RNA; listed as DNA, chemistry not fully specified) | 72.9 | 46.16 | 89.56 | 74.94
6 | SluU64 + SluD73 (guide 1 GGGCTCGAAGGGTCCTTGTAGC; guide 2 CCAAAACGTGGATTGGGGTTGT; guide RNA; listed as DNA, chemistry not fully specified) | 74.77 | 50.69 | 91.02 | 70.19
7 | SluU64 + SluD83 (guide 1 GGGCTCGAAGGGTCCTTGTAGC; guide 2 GTGGGGACAGACAATAAATACC; guide RNA; listed as DNA, chemistry not fully specified) | 78.97 | 55.22 | 90.63 | 76.55
8 | SluU64 + SluD100 (guide 1 GGGCTCGAAGGGTCCTTGTAGC; guide 2 GTCCAGAGCTTTGGGCAGATGG; guide RNA; listed as DNA, chemistry not fully specified) | 68.22 | 45.16 | 85.89 | 69.88
